Tests used:
Assay in all cases: biochemical
Type in all cases: in vitro ADME
CYP3A4 = molecular target: T1, CYP3A4 (Homo sapiens, UniProt P08684)
T1 construct: consisting of pooled HLMs (0.5 mg/ml) or RLMs (1 mg/ml) and an NADPH-regenerating system; tissue Corning Gentest Corporation; host or cells: pooled human liver microsomes (n = 20)
Protocol: (§1) Microsomal incubation was carried out at 37 °C in a mixture of 200 μl in 0.05 M Tris/HCl buffer (pH 7.4) consisting of pooled HLMs (0.5 mg/ml) or RLMs (1 mg/ml) and an NADPH-regenerating system including MgCl2 (5 mM), G6P (10 mM), G6PDH (0.4 U/ml) and NADP (1 mM). Substrates were added into the incubation mixture and obtained the final concentrations (10 μM phenacetin for CYP1A2, 20 μM bupropion for CYP2B1/6, 20 μM tolbutamide for CYP2C9/11, 5 μM dextromethorphan for CYP2D1/6, 20 μM chlorzoxazone for CYP2E1 and 10 μM midazolam for CYP3A2/4), which were close to Km respectively. The proportion of organic solvent was not higher than 1% (v/v) in the incubation mixture. After pre-incubation for 5 min, the reaction was initiated by addition of NADP. Incubations were performed for 20 min, stopped by adding 200 μl ice-cold acetonitrile. And then 20 μl internal standard solution was added (3-acetamidophenol 2 μg/ml, chlorpropamide 2 μg/ml and mebendazole 2 μg/ml). The solution was mixed thoroughly for 3 min and centrifuged for 10 min at 16,000 × g at 4 °C. The supernatant (60 μl) was transferred to autosampler vials, and 2 μl was injected into LC-MS/MS system.
(§2) The IC50 (concentration of inhibitor to cause 50% inhibition of original enzyme activity) values were determined with the same incubation condition above. The specific concentrations of plumbagin were ranged from 0.1 μM to 50 μM. The IC50 values were calculated by plotting relative activities over the logarithm of plumbagin concentrations using GraphPad Prism 5.0 (GraphPad software Inc., CA, USA).
(§3) Cocktail probe substrates were then added and incubated for 20 min. Reactions were stopped with 200 μl ice-cold acetonitrile. The samples were treated according to the microsomal incubation method and then injected into LC-MS/MS for analysis.
(§4) Kinetic studies were performed for determining the types of inhibition on CYP by plumbagin. Pooled HLMs (0.5 mg/ml) or RLMs (1 mg/ml) with plumbagin (1 μM, 2 μM, 5 μM and 10 μM) were incubated in 0.05 M Tris/HCl buffer (pH 7.4) for 20 min at 37 °C. A series of concentrations for cocktail probe substrates were used: 2.5–20 μM phenacetin for CYP1A2; 5–40 μM bupropion for CYP2B1/6; 5–40 μM tolbutamide for CYP2C9/11; 1.25–10 μM dextromethorphan for CYP2D1/6; 5–40 μM chlorzoxazone for CYP2E1; 2.5–80 μM midazolam for CYP3A2; and 0.625–5 μM midazolam for CYP3A4. Enzyme kinetics as well as statistical analysis were performed using GraphPad Prism 5.0.
(§5) All data were presented as mean ± SD. The IC50 values were fitted by non-linear regression analysis using GraphPad Prism 5.0. The kinetic parameters were obtained by fitting velocity data to kinetic models (Michaelis-Menten) using GraphPad Prism 5.0. The Lineweaver-Burk Plot (the reciprocal of reaction velocities versus the reciprocal of substrates concentrations) was used to determine the quality of fit to a specific inhibition model. The inhibition constant (Ki) was obtained by a secondary plot using the slopes of the primary Lineweaver-Burk Plot (Km/Vmax versus inhibitor concentrations). αKi was obtained from a secondary plot using the y-intercepts of the Lineweaver-Burk plot (1/Vmax versus inhibitor concentrations). All results were analyzed in quadruplicate. One-way analysis of variance was used to estimate the significance of differences. There was statistical significance between control and test groups if p < 0.05.

CYP2B6 = molecular target: T2, CYP2B6 (Homo sapiens, UniProt P20813)
T2 construct: consisting of pooled HLMs (0.5 mg/ml) or RLMs (1 mg/ml) and an NADPH-regenerating system; tissue Corning Gentest Corporation; host or cells: pooled human liver microsomes (n = 20)
T2 sequence (P20813 1-491): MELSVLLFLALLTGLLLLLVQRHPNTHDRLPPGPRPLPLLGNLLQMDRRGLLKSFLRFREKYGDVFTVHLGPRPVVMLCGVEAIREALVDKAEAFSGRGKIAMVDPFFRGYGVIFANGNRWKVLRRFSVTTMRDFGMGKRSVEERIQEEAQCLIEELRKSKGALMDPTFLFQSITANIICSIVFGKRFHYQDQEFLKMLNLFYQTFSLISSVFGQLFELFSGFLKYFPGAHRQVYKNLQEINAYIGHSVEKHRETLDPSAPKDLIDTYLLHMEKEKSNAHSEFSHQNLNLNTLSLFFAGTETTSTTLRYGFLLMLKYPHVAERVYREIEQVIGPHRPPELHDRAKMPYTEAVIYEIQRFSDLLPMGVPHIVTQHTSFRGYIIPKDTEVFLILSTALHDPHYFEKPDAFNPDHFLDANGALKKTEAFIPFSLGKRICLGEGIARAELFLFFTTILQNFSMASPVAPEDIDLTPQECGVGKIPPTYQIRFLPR
Protocol: as §1, §2, §3, §4, §5

CYP1A2 = molecular target: T3, CYP1A2 (Homo sapiens, UniProt P05177)
T3 construct: consisting of pooled HLMs (0.5 mg/ml) or RLMs (1 mg/ml) and an NADPH-regenerating system; tissue Corning Gentest Corporation; host or cells: pooled human liver microsomes (n = 20)
T3 sequence (P05177 1-516): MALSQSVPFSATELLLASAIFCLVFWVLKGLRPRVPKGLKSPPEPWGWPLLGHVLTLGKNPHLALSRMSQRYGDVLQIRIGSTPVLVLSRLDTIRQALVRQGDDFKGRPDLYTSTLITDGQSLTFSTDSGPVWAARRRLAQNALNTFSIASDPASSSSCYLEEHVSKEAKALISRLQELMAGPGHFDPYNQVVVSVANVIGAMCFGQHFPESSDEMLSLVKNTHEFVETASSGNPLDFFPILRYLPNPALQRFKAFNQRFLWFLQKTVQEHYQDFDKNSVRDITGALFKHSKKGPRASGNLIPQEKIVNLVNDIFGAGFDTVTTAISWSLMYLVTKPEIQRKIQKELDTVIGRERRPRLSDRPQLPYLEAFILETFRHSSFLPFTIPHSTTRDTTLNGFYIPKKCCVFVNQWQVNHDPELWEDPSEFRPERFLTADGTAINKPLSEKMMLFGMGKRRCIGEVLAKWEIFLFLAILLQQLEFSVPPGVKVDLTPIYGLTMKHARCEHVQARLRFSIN
Protocol: as §1, §2, §3, §4, §5

T1 sequence (P08684 whole entry): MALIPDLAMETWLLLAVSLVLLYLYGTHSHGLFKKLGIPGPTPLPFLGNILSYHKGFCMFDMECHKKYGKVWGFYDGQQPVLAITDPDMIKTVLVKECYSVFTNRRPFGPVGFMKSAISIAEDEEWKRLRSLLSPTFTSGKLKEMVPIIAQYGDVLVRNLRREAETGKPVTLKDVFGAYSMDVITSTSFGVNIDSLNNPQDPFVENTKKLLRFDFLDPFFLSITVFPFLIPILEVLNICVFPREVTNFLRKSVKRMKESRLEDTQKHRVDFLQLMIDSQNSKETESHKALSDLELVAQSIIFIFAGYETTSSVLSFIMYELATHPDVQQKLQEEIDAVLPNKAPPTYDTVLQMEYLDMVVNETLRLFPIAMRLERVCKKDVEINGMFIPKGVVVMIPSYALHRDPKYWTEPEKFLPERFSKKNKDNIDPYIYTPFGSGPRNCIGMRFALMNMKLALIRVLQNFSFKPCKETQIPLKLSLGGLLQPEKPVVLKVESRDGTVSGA

CC1=CC(=O)c2c(O)cccc2C1=O [plumbagin, 5-hydroxy-2-methyl-1,4-naphthoquinone]
IC50 (CYP3A4): 6.45 µM
Ki (CYP3A4): 0.88 µM
Type of inhibition (CYP3A4): mixed-type
α (CYP3A4; human, 20 min, pH 7.4): 1.54
αKi (CYP3A4; human, 20 min, pH 7.4): 0.57 µM
IC50 (CYP2B6): 13.1 µM
Ki (CYP2B6): 1.62 µM
Type of inhibition (CYP2B6): mixed-type
α (CYP2B6; human, 20 min, pH 7.4): 0.55
αKi (CYP2B6; human, 20 min, pH 7.4): 2.92 µM
IC50 (CYP1A2): 7.49 µM
Ki (CYP1A2): 0.15 µM
Type of inhibition (CYP1A2): non-competitive
α (CYP1A2; human, 20 min, pH 7.4): 0.94
αKi (CYP1A2; human, 20 min, pH 7.4): 0.16 µM
